One test concerns the target T1, PfFNT G107S-GFP (Plasmodium falciparum, UniProt O77389, G107S).
T1 construct: The DNA of full-length PfFNT from Plasmodium falciparum 3D7 was cloned as a C-terminal GFP fusion; expressed in transfected cells; intact cells for imaging, LMNG-solubilized membranes for FCCS
The test is described as follows: Live cell confocal imaging, co-localization with PfFNT G107S-GFP in HEK293 cells. The test is classed as cell-based. Particulars: for co-localization / membrane localization: 50 nM probe, 0.05% Triton X-100; for competition of BH267.meta-DY647 membrane localization by unlabeled compound: 100 µM unlabeled compound. The source says:
A PfFNT G107S mutant generated by sublethal dosing of BH296 in vitro parasite cultures has gained attention as it confers resistance against BH296, but the introduction of a scaffold nitrogen atom (BH267.meta; Figure 1) restored the effectiveness of the inhibitor [11]. The G107S mutation site is located at the cytoplasmic entrance of PfFNT and narrows the transport path precluding the binding of BH296 via sterical hinderance of the phenyl moiety of the compound. Exchange of the carbon atom in the meta-position of the aromatic ring of BH296 for a nitrogen atom introduced a hydrogen bond acceptor site for the serine hydroxyl of the resistance mutation and restored binding to the mutant PfFNT G107S. We analyzed the interaction of BH267.meta by cellular imaging. For this, we generated labeled BH267.meta-DY647 (Figure 1), expressed PfFNT G107S in HEK cells, and incubated the cells with BH296-DY647 or BH 267.meta-DY647 after treatment with 0.05% Triton X-100.
Whether these differences in signal intensity can be attributed to different affinities, to expression levels of the target protein, or to the cellular localization cannot be concluded from imaging-based experiments but requires biophysical analytical methods. However, the observation confirms previous findings that show the activity of BH267.meta on PfFNT G107S.
The confocal laser scanning microscopy was performed on an LSM 510 confocal microscope connected to an Axiovert 200M equipped with a C-Apochromat 40×/1.2 W water immersion objective (Carl Zeiss, Germany). The red fluorophore (Dy-647) was excited using a 633 nm helium–neon laser, whereas the green fluorophore (GFP) was excited using a 488 nm argon-ion laser.

The target in the next test is T2, PfFNT wt-GFP (Plasmodium falciparum, UniProt O77389).
T2 construct: The DNA of full-length PfFNT from Plasmodium falciparum 3D7 was cloned as a C-terminal GFP fusion; expressed in transfected cells; intact cells for imaging, LMNG-solubilized membranes or lysates for FCCS
The test is described as follows: FCCS equilibrium competition binding, PfFNT wildtype. Particulars: for Ki: Cheng Prusoff; for complex formed in the absence of a competitor: 70 nM tracer. How it is done:
To analyze the binding properties of unlabeled inhibitors BH296 and […], we determined their inhibition constants (Ki) in equilibrium competition binding assays. For this, we first incubated membrane preparations comprising 10 nM of PfFNT wildtype with labeled BH296 at a concentration of 70 nM. The interaction was then competed with increasing amounts of unlabeled parental compounds BH296 and BH267.meta within a concentration range of 10 pM and 10 µM. The concentration of formed complex between PfFNT-GFP and BH296-DY647 relates to the values observed in the saturation binding assays. […] The corresponding Ki values were then calculated employing the Cheng Prusoff equation [17].
In view of the differences in complex formation of both tracers, we were also interested to see how both unlabeled compounds perform in competition experiments with BH267.meta-DY647 as a probe. The identical PfFNT-GFP membrane preparation as in the previous experiment was incubated with BH267.meta-DY647 at a concentration of 70 nM to allow for complex formation. Different amounts of competitors BH296 and BH267.meta were added to the interaction at concentrations ranging from 10 pM to 10 µM and incubated at room temperature for 1 h to allow the interaction to reach equilibrium. […] A significant amount of 20% of complex remained intact, independent of competitor concentration and incubation time. This finding is of interest because it mirrors the behavior of BH296-DY647 in saturation binding assays, where a subfraction of target appeared incapable of binding to the more space-occupying BH296 (Figure 4d, Table 2).
FCCS measurements were conducted in 384-well glass-bottom plates (cat. no PS96B-G175, SWISSCI, Switzerland) using an Insight plate reader (Evotec Technologies, Germany) fitted with a U-Apo300 40x water immersion lens, NA 1.15 (Olympus, Japan). The 488 nm laser line of an argon-ion laser and the light of a 633 nm helium–neon laser were used for excitation. Fluorescence fluctuations were recorded for 8 s with 12 repetitions and analyzed afterward using FCS+plus Analyze 1.1P (Evotec technologies, Version 1.2.5g). FCCS analysis was carried out as described previously. Briefly, for measuring the dissociation constant (KD), a titration series of 12 dilutions was prepared, where the concentration of the lysates obtained from HEK cells expressing GFP-fusions of PfFNT WT and G107S was kept constant, and the concentration of the labeled binding partner (BH296-DY647 and BH267.meta-DY647, respectively) was varied. The IC50 values were calculated by plotting the concentration from the dual labeled complex against the concentration of the competitor titrated over a concentration range from 10 µM to 10 pM. Samples were incubated for 1 h at room temperature prior to FCCS measurements to allow the formation of drug target complexes. From the resulting IC50 values, the Ki values were obtained by application of the Cheng Prusoff equation [17]. To assess the rate constants, time-resolved measurements were carried out at different concentrations of the labeled ligand. […] All KD and IC50 values, as well as kinetic parameters, were determined from three independently repeated experiments. The figures show one representative measurement; however, the calculated KD, Ki, kon and koff values are presented as an average of the three measurements ± SD. Error bars denote ± SEM.

In general, Ki refers to a measure of affinity in units of concentration, obtained from inhibition or displacement.

Molecules are shown by their SMILES. “Also recorded” adds a separate entry of the source. Where two headings read alike, the source gives them in different places.

T1 sequence (O77389 whole entry G107S, the tested form may be a part): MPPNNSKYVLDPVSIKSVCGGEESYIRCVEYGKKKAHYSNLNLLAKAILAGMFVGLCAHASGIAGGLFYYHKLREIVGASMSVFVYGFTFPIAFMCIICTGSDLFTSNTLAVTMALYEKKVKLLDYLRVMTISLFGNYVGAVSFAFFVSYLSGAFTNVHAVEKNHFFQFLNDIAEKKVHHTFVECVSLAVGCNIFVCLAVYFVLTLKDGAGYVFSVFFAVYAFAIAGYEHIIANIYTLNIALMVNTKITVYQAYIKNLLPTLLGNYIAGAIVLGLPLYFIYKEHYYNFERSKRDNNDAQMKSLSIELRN
T2 sequence (O77389 whole entry, the tested form may be a part): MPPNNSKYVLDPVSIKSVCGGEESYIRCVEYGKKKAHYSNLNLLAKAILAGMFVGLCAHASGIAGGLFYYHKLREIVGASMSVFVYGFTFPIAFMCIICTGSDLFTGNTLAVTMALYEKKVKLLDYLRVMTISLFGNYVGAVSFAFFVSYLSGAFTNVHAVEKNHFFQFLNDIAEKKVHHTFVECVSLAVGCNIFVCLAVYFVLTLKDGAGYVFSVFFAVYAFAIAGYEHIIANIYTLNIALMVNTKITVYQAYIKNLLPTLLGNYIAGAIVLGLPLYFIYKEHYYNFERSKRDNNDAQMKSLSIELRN

For `O=C(C=C(O)C(F)(F)C(F)(F)F)c1ccc(O)cc1` [BH296, 4,4,5,5,5-pentafluoro-3-hydroxy-1-(4-hydroxyphenyl)pent-2-en-1-one], on PfFNT G107S-GFP, the “co-localization / membrane localization” value was “did not localize to membranes” and the “competition of BH267.meta-DY647 membrane localization by unlabeled compound” value was “cannot compete”. The Ki at PfFNT wt-GFP (Ki Competitor, fluorescent probe BH267.meta-DY647 70 nM, 1 h room temperature) was 47 nM. The same molecule yielded an inhibitory constant (Ki) at PfFNT wt-GFP (Ki Competitor, fluorescent probe BH296-DY647 70 nM, 10 nM PfFNT-GFP) of 48 ± 2 nM. Also, the “complex remaining intact after competition” value at PfFNT wt-GFP (tracer BH267.meta-DY647, independent of competitor concentration and incubation time) turned out to be 20%.
For `CCN1/C(=C/C=C/C=C/C2=[N+](CC)c3ccc(S(=O)(=O)O)cc3C2(C)CCCC(=O)NCCOCCOCCOCCOCCC(=O)NCCCOc2ccc(C(=O)/C=C(\O)C(F)(F)C(F)(F)F)cc2)C(C)(C)c2cc(S(=O)(=O)[O-])ccc21` (centres unmarked) [BH296-DY647], the “complex formed in the absence of a competitor” value at PfFNT wt-GFP (10 nM PfFNT-GFP) is 1.5 nM.
For the molecule `O=C(/C=C(\O)C(F)(F)C(F)(F)F)c1cccnc1` [BH267.meta], on PfFNT G107S-GFP, the “competition of BH267.meta-DY647 membrane localization by unlabeled compound” value was “prevents membrane localization; also recorded: could be competed”. Besides, the Ki at PfFNT wt-GFP (fluorescent probe BH267.meta-DY647 70 nM, 1 h room temperature, read-out: Ki Competitor (converted)) is 56 nM; at PfFNT wt-GFP (fluorescent probe BH296-DY647 70 nM, 10 nM PfFNT-GFP, read-out: Ki Competitor (converted)) it was 66 ± 6 nM.
As for `CCN1/C(=C/C=C/C=C/C2=[N+](CC)c3ccc(S(=O)(=O)O)cc3C2(C)CCCC(=O)NCCOCCOCCOCCOCCC(=O)NCCCOc2ccc(C(=O)/C=C(\O)C(F)(F)C(F)(F)F)cn2)C(C)(C)c2cc(S(=O)(=O)[O-])ccc21` (centres unmarked) [BH267.meta-DY647], the “co-localization / membrane localization” value on PfFNT G107S-GFP is “co-localizes; also recorded: clear membrane stain”. In addition, on PfFNT wt-GFP (10 nM PfFNT-GFP), the “complex formed in the absence of a competitor” value is given as 3 nM.

(Values after paper PMC8399565, “Fluorescence Cross-Correlation Spectroscopy Yields True Affinity and Binding Kinetics of Plasmodium Lactate Transport Inhibitors” (Pharmaceuticals, 2021).)
